Data: PMC7892824, “Eltrombopag directly inhibits BAX and prevents cell death” (Nature Communications, 2021)

Tests used:
BAX = molecular target: T1, BAX (Mus musculus, UniProt Q07813); assay: CETSA, […] EO, TM lowered by […] °C; assay type: cell-based; settings: read-out: CETSA, 10 μM EO, TM lowered by 9 °C
T1 construct: endogenous BAX in BAK KO mouse embryonic fibroblasts

BAX R134E = molecular target: T2, BAX R134E (Homo sapiens, UniProt Q07812, R134E); assay: 1H-15N HSQC NMR chemical shift perturbation; liposomal release inhibition; assay type: binding
T2 construct: full-length (1–192)
T2 sequence (Q07812 whole entry R134E): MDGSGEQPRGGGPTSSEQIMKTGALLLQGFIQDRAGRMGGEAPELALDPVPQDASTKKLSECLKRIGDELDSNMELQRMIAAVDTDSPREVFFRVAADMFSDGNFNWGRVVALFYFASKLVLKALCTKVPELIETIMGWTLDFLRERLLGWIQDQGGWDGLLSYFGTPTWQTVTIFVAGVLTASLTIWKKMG

T1 sequence (Q07813 whole entry): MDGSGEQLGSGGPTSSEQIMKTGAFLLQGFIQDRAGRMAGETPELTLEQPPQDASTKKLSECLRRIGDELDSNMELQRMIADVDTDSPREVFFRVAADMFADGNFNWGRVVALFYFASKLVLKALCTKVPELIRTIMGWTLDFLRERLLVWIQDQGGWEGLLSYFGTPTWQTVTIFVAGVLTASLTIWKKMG

## CC1=NN(c2ccc(C)c(C)c2)C(=O)/C1=N\Nc1cccc(-c2cccc(C(=O)O)c2)c1O [compound 2, Eltrombopag]
BAX
  Tm decrease at 10 µM: 9 °C
BAX R134E
  1H-15N HSQC NMR chemical shift perturbation; liposomal release inhibition: BAX R134E in the presence of EO exhibited clustering of CSPs to the trigger site, albeit with reduced CSPs
